Measurements reported in ChEMBL document CHEMBL5143705, “Design, synthesis and structure-activity relationship of 4-(1,1,1,3,3,3-hexafluoro-2-hydroxyisoprop-2-yl)phenylsilane derivatives as liver X receptor agonists” (Bioorg Med Chem, 2022).

How the values were obtained:
Format in all cases: cell-based
[1] = Toxicity in human HEK293 cells assessed as reduction in cell viability at 10 uM; settings: hek293, 10 µM
[2] = molecular target: T1, Oxysterols receptor LXR-alpha (Homo sapiens, UniProt Q13133); assay: Agonist activity against human LXRalpha expressed in human HEK293T cells co-expressing CMX-GAL4N-hLXRalpha incubated for 24 hrs by reporter gene assay
T1 sequence (Q13133 whole entry): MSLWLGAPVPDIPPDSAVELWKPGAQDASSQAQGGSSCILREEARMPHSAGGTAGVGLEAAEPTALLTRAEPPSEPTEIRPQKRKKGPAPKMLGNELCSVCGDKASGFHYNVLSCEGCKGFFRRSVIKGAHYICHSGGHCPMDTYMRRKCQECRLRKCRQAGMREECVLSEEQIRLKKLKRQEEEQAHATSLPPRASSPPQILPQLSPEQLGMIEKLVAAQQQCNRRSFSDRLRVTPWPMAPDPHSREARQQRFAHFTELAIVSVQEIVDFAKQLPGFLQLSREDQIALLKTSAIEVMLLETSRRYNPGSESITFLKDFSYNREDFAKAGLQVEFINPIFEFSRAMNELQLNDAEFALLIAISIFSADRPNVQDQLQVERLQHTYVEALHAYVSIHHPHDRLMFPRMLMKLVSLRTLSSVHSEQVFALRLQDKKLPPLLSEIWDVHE

[3] = molecular target: T2, Oxysterols receptor LXR-beta (Homo sapiens, UniProt P55055); assay: Agonist activity against human LXRbeta expressed in human HEK293T cells co-expressing CMX-GAL4N-hLXRbeta incubated for 24 hrs by reporter gene assay
T2 sequence (P55055 whole entry): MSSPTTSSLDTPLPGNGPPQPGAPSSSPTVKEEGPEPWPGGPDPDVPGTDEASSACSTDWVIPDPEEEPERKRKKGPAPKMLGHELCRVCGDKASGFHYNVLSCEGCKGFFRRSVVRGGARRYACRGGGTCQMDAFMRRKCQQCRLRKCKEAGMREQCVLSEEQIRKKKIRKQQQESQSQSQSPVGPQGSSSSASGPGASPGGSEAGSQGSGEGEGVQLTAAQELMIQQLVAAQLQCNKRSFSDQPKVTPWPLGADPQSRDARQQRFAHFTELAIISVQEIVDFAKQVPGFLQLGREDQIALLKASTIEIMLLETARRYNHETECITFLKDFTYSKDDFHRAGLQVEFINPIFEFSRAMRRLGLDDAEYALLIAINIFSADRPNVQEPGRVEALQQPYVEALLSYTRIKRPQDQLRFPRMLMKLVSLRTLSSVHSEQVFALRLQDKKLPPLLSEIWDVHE

[4] = molecular target: T3, Oxysterols receptor LXR-alpha (Homo sapiens) (UniProt Q13133); assay: Partial agonist activity against human LXRalpha in human HEK293T cells incubated for 24 hrs by reporter gene assay relative to T0901317
T3 sequence (whole entry): T1 sequence (Q13133 whole entry)

[5] = molecular target: T4, Oxysterols receptor LXR-beta (Homo sapiens) (UniProt P55055); assay: Partial agonist activity against human LXRbeta in human HEK293T cells incubated for 24 hrs by reporter gene assay T0901317
T4 sequence (whole entry): T2 sequence (P55055 whole entry)

Row | EC50 [2] [nM] | EC50 [3] [nM] | Activity [4] [%] | Activity [5] [%] | SMILES | Activity [1]
1 | 4450 | 3340 |  |  | CC(O)[Si](C)(C)c1ccc(C(O)(C(F)(F)F)C(F)(F)F)cc1 (stereo not given) | Non-Toxic
2 | 580 | 510 |  |  | C[Si](C)(C)[Si](C)(C)c1ccc(C(O)(C(F)(F)F)C(F)(F)F)cc1 | Non-Toxic
3 | 500 | 450 |  |  | C=CC[Si](C)(C)c1ccc(C(O)(C(F)(F)F)C(F)(F)F)cc1 | Non-Toxic
4 |  |  |  |  | O=S(=O)(c1ccccc1)N(CC(F)(F)F)c1ccc(C(O)(C(F)(F)F)C(F)(F)F)cc1 [T091317] | Non-Toxic
5 | 1460 | 1730 |  |  | C[Si](C)(CCO)c1ccc(C(O)(C(F)(F)F)C(F)(F)F)cc1 | Non-Toxic
6 | 4450 | 4030 |  |  | C[Si](C)(CCCO)c1ccc(C(O)(C(F)(F)F)C(F)(F)F)cc1 | Non-Toxic
7 | 3120 | 1410 |  |  | C[Si](C)(C)c1ccc(C(O)(C(F)(F)F)C(F)(F)F)cc1 | Non-Toxic
8 | 1130 | 650 |  |  | CC(C)(C)[Si](C)(C)c1ccc(C(O)(C(F)(F)F)C(F)(F)F)cc1 | Non-Toxic
9 | 590 | 690 |  |  | CC[Si](C)(CC)c1ccc(C(O)(C(F)(F)F)C(F)(F)F)cc1 | Non-Toxic
10 | 430 | 590 |  |  | CCC[Si](CCC)(CCC)c1ccc(C(O)(C(F)(F)F)C(F)(F)F)cc1 | Non-Toxic
11 | 8500 | 5030 |  |  | C[Si](O)(c1ccccc1)c1ccc(C(O)(C(F)(F)F)C(F)(F)F)cc1 (stereo not given) | Non-Toxic
12 |  |  |  |  | CN(c1ccc(C(O)(C(F)(F)F)C(F)(F)F)cc1)S(=O)(=O)c1ccccc1 | Non-Toxic
13 | 620 | 530 |  |  | CC[Si](CC)(CC)c1ccc(C(O)(C(F)(F)F)C(F)(F)F)cc1 | Non-Toxic
14 | 940 | 720 |  |  | C[Si](C)(Cc1ccccc1)c1ccc(C(O)(C(F)(F)F)C(F)(F)F)cc1 | Non-Toxic
15 | 2350 | 1700 |  |  | CCCC[Si](C)(C)c1ccc(C(O)(C(F)(F)F)C(F)(F)F)cc1 | Non-Toxic
16 | 4980 | 1980 | 19 | 27 | OC(c1ccc([Si](Cc2ccccc2)(Cc2ccccc2)Cc2ccccc2)cc1)(C(F)(F)F)C(F)(F)F | Non-Toxic
17 | 2060 | 1800 |  |  | C=C[Si](C)(C)c1ccc(C(O)(C(F)(F)F)C(F)(F)F)cc1 | Non-Toxic
18 | 1430 | 740 |  |  | C[Si](C)(c1ccc(C(O)(C(F)(F)F)C(F)(F)F)cc1)C1CCCCC1 | Non-Toxic
19 | 2150 | 740 |  |  | C[Si](C)(c1ccccc1)c1ccc(C(O)(C(F)(F)F)C(F)(F)F)cc1 | Non-Toxic
